{"source": "the supplement of paper PMC10307832", "test_in_all_cases": "relative viability (nuclei count vs DMSO), 5 days (fraction); higher = more cells survive", "key": {"[1]": {"test_system": "RERF-LC-KJ", "summary_of_the_method": "(§1)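 One day after seeding in 1536-well plates, lung cancer cell lines were dosed by pin tool. Dosing was either single-drug or a fixed anchor-drug dose plus five library-drug doses (not always all listed) in √10 steps. After 5 days, nuclei were stained in one fix-and-stain step and counted on 4× images, and relative viability is the nuclei count of treated wells over that of vehicle wells, given as the median of duplicate plates.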"}, "[2]": {"test_system": "NCI-H2405", "summary_of_the_method": "as §1"}, "[3]": {"test_system": "HCC-827", "summary_of_the_method": "as §1"}, "[4]": {"test_system": "NCI-H1666", "summary_of_the_method": "as §1"}, "[5]": {"test_system": "LK-2", "summary_of_the_method": "as §1"}, "[6]": {"test_system": "SK-LU-1", "summary_of_the_method": "as §1"}, "[7]": {"test_system": "SW 900", "summary_of_the_method": "as §1"}, "[8]": {"test_system": "NCI-H1975", "summary_of_the_method": "as §1"}, "[9]": {"test_system": "NCI-H2126", "summary_of_the_method": "as §1"}, "[10]": {"test_system": "NCI-H23", "summary_of_the_method": "as §1"}, "[11]": {"test_system": "LXF-289", "summary_of_the_method": "as §1"}}}
{"smiles": "O=c1cc(N2CCOCC2)oc2c(-c3cccc4c3sc3ccccc34)cccc12", "note": "+ CC(=O)Nc1cccc(-n2c(=O)n(C3CC3)c(=O)c3c(Nc4ccc(I)cc4F)n(C)c(=O)c(C)c32)c1 [Trametinib] (partner 0.02 µM)", "values": [{"measurement": "relative viability", "setting": "[1]; first compound 0.01 µM", "value": 0.824}, {"measurement": "relative viability", "setting": "[1]; first compound 0.03162 µM", "value": 0.874}, {"measurement": "relative viability", "setting": "[1]; first compound 0.1 µM", "value": 0.936}, {"measurement": "relative viability", "setting": "[1]; first compound 0.3162 µM", "value": 0.836}, {"measurement": "relative viability", "setting": "[1]; first compound 1 µM", "value": 0.798}, {"measurement": "relative viability", "setting": "[2]; first compound 0.01 µM", "value": 0.751}, {"measurement": "relative viability", "setting": "[2]; first compound 0.03162 µM", "value": 0.664}, {"measurement": "relative viability", "setting": "[2]; first compound 0.1 µM", "value": 0.631}, {"measurement": "relative viability", "setting": "[2]; first compound 0.3162 µM", "value": 0.686}, {"measurement": "relative viability", "setting": "[2]; first compound 1 µM", "value": 0.665}, {"measurement": "relative viability", "setting": "[3]; first compound 0.01 µM", "value": 0.528}, {"measurement": "relative viability", "setting": "[3]; first compound 0.03162 µM", "value": 0.508}, {"measurement": "relative viability", "setting": "[3]; first compound 0.1 µM", "value": 0.547}, {"measurement": "relative viability", "setting": "[3]; first compound 0.3162 µM", "value": 0.504}, {"measurement": "relative viability", "setting": "[3]; first compound 1 µM", "value": 0.525}, {"measurement": "relative viability", "setting": "[4]; first compound 0.01 µM", "value": 0.882}, {"measurement": "relative viability", "setting": "[4]; first compound 0.03162 µM", "value": 0.829}, {"measurement": "relative viability", "setting": "[4]; first compound 0.1 µM", "value": 0.84}, {"measurement": "relative viability", "setting": "[4]; first compound 0.3162 µM", "value": 0.814}, {"measurement": "relative viability", "setting": "[4]; first compound 1 µM", "value": 0.849}, {"measurement": "relative viability", "setting": "[5]; first compound 0.01 µM", "value": 0.808}, {"measurement": "relative viability", "setting": "[5]; first compound 0.03162 µM", "value": 0.807}, {"measurement": "relative viability", "setting": "[5]; first compound 0.1 µM", "value": 0.957}, {"measurement": "relative viability", "setting": "[5]; first compound 0.3162 µM", "value": 0.515}, {"measurement": "relative viability", "setting": "[5]; first compound 1 µM", "value": 0.902}, {"measurement": "relative viability", "setting": "[6]; first compound 0.01 µM", "value": 0.521}, {"measurement": "relative viability", "setting": "[6]; first compound 0.03162 µM", "value": 0.453}, {"measurement": "relative viability", "setting": "[6]; first compound 0.1 µM", "value": 0.505}, {"measurement": "relative viability", "setting": "[6]; first compound 0.3162 µM", "value": 0.443}, {"measurement": "relative viability", "setting": "[6]; first compound 1 µM", "value": 0.5}, {"measurement": "relative viability", "setting": "[7]; first compound 0.03162 µM", "value": 0.922}, {"measurement": "relative viability", "setting": "[7]; first compound 0.1 µM", "value": 0.949}, {"measurement": "relative viability", "setting": "[7]; first compound 0.3162 µM", "value": 0.858}, {"measurement": "relative viability", "setting": "[7]; first compound 1 µM", "value": 0.82}, {"measurement": "relative viability", "setting": "[8]; first compound 0.01 µM", "value": 0.434}, {"measurement": "relative viability", "setting": "[8]; first compound 0.03162 µM", "value": 0.337}, {"measurement": "relative viability", "setting": "[8]; first compound 0.1 µM", "value": 0.401}, {"measurement": "relative viability", "setting": "[8]; first compound 0.3162 µM", "value": 0.361}, {"measurement": "relative viability", "setting": "[8]; first compound 1 µM", "value": 0.293}, {"measurement": "relative viability", "setting": "[9]; first compound 0.01 µM", "value": 0.543}, {"measurement": "relative viability", "setting": "[9]; first compound 0.03162 µM", "value": 0.52}, {"measurement": "relative viability", "setting": "[9]; first compound 0.1 µM", "value": 0.54}, {"measurement": "relative viability", "setting": "[9]; first compound 0.3162 µM", "value": 0.567}, {"measurement": "relative viability", "setting": "[9]; first compound 1 µM", "value": 0.569}, {"measurement": "relative viability", "setting": "[10]; first compound 0.01 µM", "value": 0.351}, {"measurement": "relative viability", "setting": "[10]; first compound 0.03162 µM", "value": 0.375}, {"measurement": "relative viability", "setting": "[10]; first compound 0.3162 µM", "value": 0.359}, {"measurement": "relative viability", "setting": "[10]; first compound 1 µM", "value": 0.347}, {"measurement": "relative viability", "setting": "[11]; first compound 0.01 µM", "value": 0.672}, {"measurement": "relative viability", "setting": "[11]; first compound 0.03162 µM", "value": 0.629}, {"measurement": "relative viability", "setting": "[11]; first compound 0.1 µM", "value": 0.662}, {"measurement": "relative viability", "setting": "[11]; first compound 0.3162 µM", "value": 0.673}, {"measurement": "relative viability", "setting": "[11]; first compound 1 µM", "value": 0.695}]}
